Each compound was assayed against Heat shock protein HSP 90-alpha (Homo sapiens, UniProt P07900) (assay: Competition Assay). Details: pH 7.4.
Text: To assess the affinity of compounds binding to Hsp90, we measured their ability to compete with the binding of a fluorescent analog of GA (GM-Bodipy) to Hsp90 using fluoresence polarization.
An IC50 of 0.3 nM was found for `Oc1ccc(-c2nnc(S)n2-c2cccc3ccccc23)c(O)c1` [Resorcinol analog, 1] in this work.
An IC50 of 0.1 nM was found for `CC(C)c1cc(-c2n[nH]c(=S)n2-c2cccc3ccccc23)c(O)cc1O` [lspropyl analog, 5] in this work.
An IC50 of 0.2 nM was found for `CCc1cc(-c2nnc(S)n2-c2cccc3ccccc23)c(O)cc1O` [Ethyl analog, 4] in this work.
An IC50 of 0.1 nM was found for `CCOC(=O)NCc1ccc(-n2c(-c3ccc(O)cc3O)n[nH]c2=S)cc1` [Ethyl carbamate analog, 3] in this work.
An IC50 of 0.04 nM was found for `CCOC(=O)NCc1ccc(-n2c(-c3cc(C(C)C)c(O)cc3O)n[nH]c2=S)cc1` [BX-2819] in this work.
An IC50 of 0.5 nM was found for `Oc1ccc(-c2nnc(S)n2-c2ccccc2)c(O)c1` [Unsubstituted phenyl ring analog, 2] in this work.

Source: BindingDB's records for doi:10.1111/j.1747-0285.2009.00833.x (Bayer Healthcare, 2009)
